We go through 12 molecules from PubChem BioAssay AID212 (DTP/NCI, 2004).

Molecules are shown by their SMILES. “And” between values parts separate entries of the source, which are not always exact repeats. Equal entries are not always repeated. Results filed as inconclusive are left out.

The subject of the experiment is BDF1 mice, colon carcinoma 38 sc, T/C %. The experiment in a line: NCI In Vivo Anticancer Drug Screen. Data for tumor model Colon Carcinoma 38 (subcutaneous) in B6D2F1 (BDF1) mice. Conditions: endpoint: median tumor weight (est.), higher = larger tumour. The protocol:
The antitumor activity of compounds was measured in mice bearing transplantable tumors. Survival or tumor size were measured and the results are expressed as the measurement made in the treated group (T) divided by the measurement made in the vehicle treated control group (C). The tumor model used in this assay is Colon Carcinoma 38 (subcutaneous) in B6D2F1 (BDF1) mice

Where [1] appears, read: dose: 2.0 mg/kg/injection, schedule: Q07DX002 (ip), vehicle: saline.
[2] abbreviates: dose: 4.0 mg/kg/injection, schedule: Q07DX002 (ip), vehicle: saline.
[3] abbreviates: dose: 8.0 mg/kg/injection, schedule: Q07DX002 (ip), vehicle: saline.
Where [4] appears, read: dose: 16.0 mg/kg/injection, schedule: Q07DX002 (ip), vehicle: saline.
The mark [5] stands for this setting: dose: 50.0 mg/kg/injection, schedule: Q07DX002 (ip), vehicle: Klucel (hydroxypropylcellulose) (HPC).
Where [6] appears, read: dose: 100.0 mg/kg/injection, schedule: Q07DX002 (ip), vehicle: Klucel (hydroxypropylcellulose) (HPC).
Where [7] appears, read: dose: 200.0 mg/kg/injection, schedule: Q07DX002 (ip), vehicle: Klucel (hydroxypropylcellulose) (HPC).
[8] abbreviates: dose: 25.0 mg/kg/injection, schedule: Q07DX002 (ip), vehicle: saline.
The mark [9] stands for this setting: dose: 50.0 mg/kg/injection, schedule: Q07DX002 (ip), vehicle: saline.
Setting [10] is: dose: 100.0 mg/kg/injection, schedule: Q07DX002 (ip), vehicle: saline.
Where [11] appears, read: dose: 200.0 mg/kg/injection, schedule: Q07DX002 (ip), vehicle: saline.
Setting [12] is: dose: 400.0 mg/kg/injection, schedule: Q07DX002 (ip), vehicle: saline.

On to `O=C1C(NCC(O)CO)=C(N2CC2)C(=O)C(NCC(O)CO)=C1N1CC1` (centres undefined), for which the T/C runs as follows: under setting [1], 105 % of control; under setting [2], 60 % of control; (dose: 4.0 mg/kg/injection, schedule: Q07DX002 (ip), vehicle: suspension in saline) 66 % of control; under setting [3], 77 % of control; (dose: 8.0 mg/kg/injection, schedule: Q07DX002 (ip), vehicle: suspension in saline) 100 % of control; under setting [4], 12 % of control. Besides, the T/C (dose: 16.0 mg/kg/injection, schedule: Q07DX002 (ip), vehicle: suspension in saline) is 69 % of control.
On to `O=c1[nH]cnc2n[nH]nc12`, for which the T/C was 122 % of control (dose: 12.5 mg/kg/injection, schedule: Q07DX002 (ip), vehicle: Klucel (hydroxypropylcellulose) (HPC)); 110 % of control (dose: 25.0 mg/kg/injection, schedule: Q07DX002 (ip), vehicle: Klucel (hydroxypropylcellulose) (HPC)); 100 % of control under setting [5]; 87 % of control under setting [6]; 77 % of control under setting [7]; 88 % of control (dose: 400.0 mg/kg/injection, schedule: Q07DX002 (ip), vehicle: Klucel (hydroxypropylcellulose) (HPC)).
`NC1=NC(O)C=C1` (centres undefined): the T/C reads like this: (dose: 7.5 mg/kg/injection, schedule: Q07DX002 (ip), vehicle: saline) 90 % of control; (dose: 15.0 mg/kg/injection, schedule: Q07DX002 (ip), vehicle: saline) 103 % of control; (dose: 30.0 mg/kg/injection, schedule: Q07DX002 (ip), vehicle: saline) 100 % of control; (dose: 60.0 mg/kg/injection, schedule: Q07DX002 (ip), vehicle: saline) 87 % of control.
As for `Cc1c(N)nc(C(CC(N)=O)NCC(N)C(N)=O)nc1C(=O)NC(C(=O)NC(C)C(O)CC(=O)NC(C(=O)NC(OC1OC(C)C(N)C(O)C1O)C(O)c1nc(-c2nc(C(=O)NCCCC(N)CC(=O)NCCCNCCCCN)cs2)cs1)C(C)O)C(OC1OC(CO)C(O)C(O)C1OC1OC(CO)C(O)C(OC(N)=O)C1O)c1cnc[nH]1` (centres undefined), the T/C is, setting by setting: under setting [1], 56 % of control; under setting [2], 43 % of control; under setting [3], 25 % of control; under setting [4], 19 % of control; (dose: 32.0 mg/kg/injection, schedule: Q07DX002 (ip), vehicle: saline) 6 % of control.
Regarding `C[C@@H](CN1CC(=O)NC(=O)C1)N1CC(=O)NC(=O)C1`, the T/C is 87 % of control under setting [8]; 95 % of control under setting [9]; 97 % of control under setting [10]; 71 % of control (dose: 100.0 mg/kg/injection, schedule: Q07DX003 (ip), vehicle: saline); 110 % of control under setting [11]; 71 % of control (dose: 200.0 mg/kg/injection, schedule: Q07DX003 (ip), vehicle: saline). Also, the T/C under setting [12] was 93 % of control; the T/C (dose: 400.0 mg/kg/injection, schedule: Q07DX003 (ip), vehicle: saline) is 71 % of control; the T/C (dose: 800.0 mg/kg/injection, schedule: Q07DX002 (ip), vehicle: saline) was 66 % of control; the T/C (dose: 800.0 mg/kg/injection, schedule: Q07DX003 (ip), vehicle: saline) was 38 % of control.
With `Oc1c(Cl)cc(Cl)cc1C=NCCSc1ccc(Cl)cc1`, the T/C runs as follows: under setting [5], 85 % of control; under setting [6], 78 % of control; under setting [7], 162 % of control.
As for `CCC(C(=O)O)C(=O)O.[NH-]CC1CCCC[N-]1.[Pt+2]`, the T/C was 305 % of control under setting [8], 404 % of control under setting [9], 209 % of control under setting [10] and 239 % of control under setting [11].
In the case of `CCS/C(SC)=C(/c1ccccc1)[P+](c1ccccc1)(c1ccccc1)c1ccccc1`, the T/C (dose: 1.5 mg/kg/injection, schedule: Q07DX002 (ip), vehicle: Klucel (hydroxypropylcellulose) (HPC)) was 87 % of control and the T/C (dose: 3.0 mg/kg/injection, schedule: Q07DX002 (ip), vehicle: Klucel (hydroxypropylcellulose) (HPC)) was 116 % of control.
Take `O=C1NCC(Br)C(=O)N1` (centres undefined): the T/C is, setting by setting: (dose: 12.5 mg/kg/injection, schedule: Q07DX002 (ip), vehicle: saline + Tween-80 + alcohol) 97 % of control; (dose: 25.0 mg/kg/injection, schedule: Q07DX002 (ip), vehicle: saline + Tween-80 + alcohol) 83 % of control; (dose: 50.0 mg/kg/injection, schedule: Q07DX002 (ip), vehicle: saline + Tween-80 + alcohol) 99 % of control; (dose: 100.0 mg/kg/injection, schedule: Q07DX002 (ip), vehicle: saline + Tween-80 + alcohol) 76 % of control; (dose: 100.0 mg/kg/injection, schedule: Q07DX002 (ip), vehicle: saline with Tween-80) 157 % of control; (dose: 200.0 mg/kg/injection, schedule: Q07DX002 (ip), vehicle: saline + Tween-80 + alcohol) 84 % of control. The T/C (dose: 400.0 mg/kg/injection, schedule: Q07DX002 (ip), vehicle: saline + Tween-80 + alcohol) was 63 % of control.
Regarding `CN(C)N=Nc1cccc(C(N)=O)c1`, the T/C is, setting by setting: (dose: 10.0 mg/kg/injection, schedule: Q07DX002 (ip), vehicle: Klucel (hydroxypropylcellulose) (HPC)) 86 % of control; (dose: 20.0 mg/kg/injection, schedule: Q07DX002 (ip), vehicle: Klucel (hydroxypropylcellulose) (HPC)) 86 % of control; (dose: 20.0 mg/kg/injection, schedule: Q07DX002 (ip), vehicle: saline) 97 % of control; (dose: 40.0 mg/kg/injection, schedule: Q07DX002 (ip), vehicle: Klucel (hydroxypropylcellulose) (HPC)) 44 % of control; (dose: 40.0 mg/kg/injection, schedule: Q07DX002 (ip), vehicle: saline) 114 % of control and 104 % of control; (dose: 80.0 mg/kg/injection, schedule: Q07DX002 (ip), vehicle: Klucel (hydroxypropylcellulose) (HPC)) 18 % of control. Further, the T/C (dose: 160.0 mg/kg/injection, schedule: Q07DX002 (ip), vehicle: saline) was 27 % of control and 29 % of control.
Turning to `CC1(C)CC23C4COC(=O)C2CCC1C3CC4=O` (centres undefined), the T/C by setting is: (dose: 6.25 mg/kg/injection, schedule: Q07DX002 (ip), vehicle: DMSO) 116 % of control and 101 % of control; (dose: 25.0 mg/kg/injection, schedule: Q07DX002 (ip), vehicle: DMSO) 81 % of control and 92 % of control; (dose: 50.0 mg/kg/injection, schedule: Q07DX002 (ip), vehicle: DMSO) 121 % of control and 105 % of control; (dose: 200.0 mg/kg/injection, schedule: Q07DX002 (ip), vehicle: DMSO) 103 % of control.
Regarding `NC(=S)c1ncn(C2OC(CO)C(O)C2O)c1N` (centres undefined), the T/C (dose: 12.5 mg/kg/injection, schedule: Q07DX002 (ip), vehicle: suspension in saline) is 114 % of control; the T/C (dose: 25.0 mg/kg/injection, schedule: Q07DX002 (ip), vehicle: suspension in saline) is 80 % of control; the T/C under setting [9] is 106 % of control; the T/C (dose: 50.0 mg/kg/injection, schedule: Q07DX002 (ip), vehicle: suspension in saline) was 87 % of control; the T/C under setting [10] was 118 % of control; the T/C (dose: 100.0 mg/kg/injection, schedule: Q07DX002 (ip), vehicle: suspension in saline) is 67 % of control. Also, the T/C under setting [11] was 259 % of control; the T/C (dose: 200.0 mg/kg/injection, schedule: Q07DX002 (ip), vehicle: suspension in saline) was 56 % of control; the T/C under setting [12] is 226 % of control; the T/C (dose: 400.0 mg/kg/injection, schedule: Q07DX002 (ip), vehicle: suspension in saline) was 67 % of control.
